# Assay results published in patent US11266643B2, “Triaryl compounds for treatment of PD-L1 diseases” (CHEMOCENTRYX, INC., priority 2019, dated 2022).
# Biological target: human PD-L1 (Homo sapiens (Human), UniProt Q9NZQ7)
# Test: Enzyme-Linked Immunosorbent Assay (ELISA), PD-1/PD-L1 binding
# Details: PD-1/PD-L1 ELISA, human PD-L1 coated plates, Table 1
# Procedure, shortened: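 Plates coated with […] human PD-L1 overnight at 4° C, blocked, then 1:5 serial compound dilutions added with human PD-1 […] 0.31 μg/mL for 1 h at 37° C. Bound PD-1 detected with streptavidin-HRP and TMB (20 min, 37° C); absorbance read at 450 nm after H2SO4 stop.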
# Chain of human PD-L1 (Q9NZQ7 19-239): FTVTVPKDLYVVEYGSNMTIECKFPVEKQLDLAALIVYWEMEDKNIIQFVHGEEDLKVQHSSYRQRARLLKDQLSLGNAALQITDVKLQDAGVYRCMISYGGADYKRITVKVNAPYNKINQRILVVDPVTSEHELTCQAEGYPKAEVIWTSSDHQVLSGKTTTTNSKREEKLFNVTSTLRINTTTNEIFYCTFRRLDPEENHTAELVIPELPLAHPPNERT
row,Structure (SMILES),IC50
1,COc1cc(-c2cccc(-c3cccc(NC(=O)c4c[nH]c(=O)n(C)c4=O)c3C)c2C)cc(F)c1CN[C@@H](C)CO [Example 1.226],< 10 nM
2,COc1cc(-c2cccc(-c3cccc(NC(=O)c4c[nH]c(=O)n(C)c4=O)c3C)c2C)cc(F)c1CN1CC(N)C1 [Example 1.227],< 10 nM
3,COc1cc(-c2cccc(-c3cccc(NC(=O)c4c[nH]c(=O)n(C)c4=O)c3C)c2C)cc(F)c1CN1CCC(N)C1 (stereo not shown) [Example 1.228],10 to 1000 nM
4,COc1cc(-c2cccc(-c3cccc(NC(=O)c4c[nH]c(=O)n(C)c4=O)c3C)c2C)cc(F)c1CN[C@@H]1CNC(=O)C1 [Example 1.229],< 10 nM
5,COc1cc(-c2cccc(-c3cccc(NC(=O)c4c[nH]c(=O)n(C)c4=O)c3C)c2C)cc(F)c1CN[C@H]1CCC(=O)NC1 [Example 1.230],< 10 nM
6,COc1cc(-c2cccc(-c3cccc(Nc4nccc5nccnc45)c3C)c2C)cc(F)c1CN1CC(O)C1 [Example 1.231],< 10 nM
7,COc1cc(-c2cccc(-c3cccc(NC(=O)c4c[nH]c(=O)n(C)c4=O)c3C)c2C)cc(F)c1CNCC(C)(C)O [Example 1.232],< 10 nM
8,COc1cc(-c2cccc(-c3cccc(NC(=O)c4c[nH]c(=O)n(C)c4=O)c3C)c2C)cc(F)c1CNCCN [Example 1.234],< 10 nM
9,COc1cc(-c2cccc(-c3cccc(NC(=O)c4c[nH]c(=O)n(C)c4=O)c3C)c2C)cc(F)c1CN1CCOCC1 [Example 1.235],10 to 1000 nM
10,COc1cc(-c2cccc(-c3cccc(NC(=O)c4c[nH]c(=O)n(C)c4=O)c3C)c2C)cc(F)c1CNC(C)C [Example 1.236],< 10 nM
11,COc1cc(-c2cccc(-c3cccc(Nc4nccc5nccnc45)c3C)c2C)cc(F)c1CNCCO [Example 1.238],< 10 nM
12,COc1cc(-c2cccc(-c3cccc(Nc4nccc5nccnc45)c3C)c2C)cc(F)c1CNCC(N)=O [Example 1.239],10 to 1000 nM
13,COc1cc(-c2cccc(-c3cccc(Nc4nccc5nccnc45)c3C)c2C)cc(F)c1CNCC(=O)O [Example 1.240],< 10 nM
14,COc1cc(-c2cccc(-c3cccc(NC(=O)c4c[nH]c(=O)n(C)c4=O)c3C)c2C)cc(F)c1CN(C)C [Example 1.241],< 10 nM
15,COc1cc(-c2cccc(-c3cccc(NC(=O)c4c[nH]c(=O)n(C)c4=O)c3C)c2C)cc(F)c1CN1CC2(C1)NC(=O)NC2=O [Example 1.242],10 to 1000 nM
16,COc1cc(-c2cccc(-c3cccc(Nc4ncnc5cccnc45)c3C)c2C)cc(F)c1CN1CC(C(=O)O)C1 [Example 1.243],1000 to 10000 nM
17,COc1cc(-c2cccc(-c3cccc(Nc4nccc5c4OCCN5)c3C)c2C)cc(F)c1CN1CC(C(=O)O)C1 [Example 1.244],10 to 1000 nM
18,COc1cc(-c2cccc(-c3cccc(Nc4ccnc5nccnc45)c3C)c2C)cc(F)c1CN1CC(C(=O)O)C1 [Example 1.245],< 10 nM
19,COc1cc(-c2cccc(-c3cccc(Nc4cccc5cncnc45)c3C)c2C)cc(F)c1CN1CC(C(=O)O)C1 [Example 1.246],10 to 1000 nM
20,COc1cc(-c2cccc(-c3cccc(NC(=O)c4c[nH]c(=O)n(C)c4=O)c3C)c2C)cc(F)c1CN(C)CCC(=O)O [Example 1.247],10 to 1000 nM
21,COc1cc(-c2cccc(-c3cccc(Nc4cccc5nccnc45)c3C)c2C)cc(F)c1CN1CC(C(=O)O)C1 [Example 1.248],10 to 1000 nM
22,COc1cc(-c2cccc(-c3cccc(Nc4nccn5ccnc45)c3C)c2C)cc(F)c1CN1CC(C(=O)O)C1 [Example 1.249],10 to 1000 nM

row,Structure (SMILES),IC50
1,COc1cc(-c2cccc(-c3cccc(Nc4cccc5c4C(=O)N(C)C5)c3C)c2C)cc(F)c1CN1CC(C(=O)O)C1 [Example 1.250],10 to 1000 nM
2,COc1cc(-c2cccc(-c3cccc(NC(=O)c4c[nH]c(=O)n(C)c4=O)c3C)c2C)cc(F)c1CN(C)CC(N)=O [Example 1.251],10 to 1000 nM
3,COc1cc(-c2cccc(-c3cccc(NC(=O)c4c[nH]c(=O)n(C)c4=O)c3C)c2C)cc(F)c1CNCC(N)=O [Example 1.252],10 to 1000 nM
4,COc1cc(-c2cccc(-c3cccc(Nc4cncc5nccnc45)c3C)c2C)cc(F)c1CN1CC(C(=O)O)C1 [Example 1.253],< 10 nM
5,COc1cc(-c2cccc(-c3cccc(NC(=O)c4cncn(C)c4=O)c3C)c2C)cc(F)c1CN[C@H]1CCC(=O)NC1 [Example 1.255],< 10 nM
6,COc1cc(-c2cccc(-c3cccc(Nc4cccc5cccnc45)c3C)c2C)cc(F)c1CN1CC(C(=O)O)C1 [Example 1.256],10 to 1000 nM
7,COc1cc(-c2cccc(-c3cccc(NC(=O)c4c[nH]c(=O)n(C)c4=O)c3C)c2C)cc(F)c1CN1CCC2(C1)NC(=O)NC2=O (stereo not shown) [Example 1.257],10 to 1000 nM
8,COc1cc(-c2cccc(-c3cccc(NC(=O)c4cncn(C)c4=O)c3C)c2C)cc(F)c1CNCCS(=O)(=O)O [Example 1.260],< 10 nM
9,COc1cc(-c2cccc(-c3cccc(NC(=O)c4c[nH]c(=O)n(C)c4=O)c3C)c2C)cc(F)c1CNCC(=O)O [Example 1.261],< 10 nM
10,COc1cc(-c2cccc(-c3cccc(Nc4nccc5ccccc45)c3C)c2C)cc(F)c1CN1CC(C(=O)O)C1 [Example 1.262],1000 to 10000 nM
11,COc1cc(-c2cccc(-c3cccc(Nc4ccnc5cccnc45)c3C)c2C)cc(F)c1CN1CC(C(=O)O)C1 [Example 1.263],10 to 1000 nM
12,COc1cc(-c2cccc(-c3cccc(Nc4cc5c(cn4)C(=O)NCC5)c3C)c2C)cc(F)c1CN1CC(C(=O)O)C1 [Example 1.264],10 to 1000 nM
13,COc1cc(-c2cccc(-c3cccc(Nc4nccc5c4C(=O)N(C)CC5)c3C)c2C)cc(F)c1CN1CC(C(=O)O)C1 [Example 1.265],< 10 nM
14,COc1cc(-c2cccc(-c3cccc(NC(=O)c4cncn(C)c4=O)c3C)c2C)cc(F)c1CNCCC(=O)O [Example 1.266],< 10 nM
15,COc1cc(-c2cccc(-c3cccc(NC(=O)c4cncn(C)c4=O)c3C)c2C)cc(F)c1CNCC(=O)O [Example 1.267],< 10 nM
16,COc1cc(-c2cccc(-c3cccc(NC(=O)c4cncn(C)c4=O)c3C)c2C)cc(F)c1CN(C)CCC(=O)O [Example 1.268],< 10 nM
17,COc1cc(-c2cccc(-c3cccc(NC(=O)c4cncn(C)c4=O)c3C)c2C)cc(F)c1CN1CCC2(C1)NC(=O)NC2=O (stereo not shown) [Example 1.269],< 10 nM
18,COc1cc(-c2cccc(-c3cccc(NC(=O)c4c[nH]c(=O)n(C)c4=O)c3C)c2C)cc(F)c1CNCCO [Example 1.270],< 10 nM
19,COc1cc(-c2cccc(-c3cccc(NC(=O)c4c[nH]c(=O)n(C)c4=O)c3C)c2C)cc(F)c1CN1CC(O)C1 [Example 1.271],< 10 nM
20,COc1cc(-c2cccc(-c3cccc(NC(=O)c4cnc(C)[nH]c4=O)c3C)c2C)cc(F)c1CN1CC(C(=O)O)C1 [Example 1.272],10 to 1000 nM
21,COc1cc(-c2cccc(-c3cccc(Nc4nccc5nccnc45)c3C)c2C)cc(F)c1CN1CC(C(=O)O)C1 [Example 1.273],< 10 nM
22,COc1cc(-c2cccc(-c3cccc(NC(=O)c4c(C)cc(C)n(C)c4=O)c3C)c2C)cc(F)c1CN1CC(C(=O)O)C1 [Example 1.275],10 to 1000 nM

row,Structure (SMILES),IC50
1,COc1cc(-c2cccc(-c3cccc(NC(=O)c4cccn(CCO)c4=O)c3C)c2C)cc(F)c1CN1CC(C(=O)O)C1 [Example 1.277],< 10 nM
2,COc1cc(-c2cccc(-c3cccc(Nc4nccc5ccn(C)c(=O)c45)c3C)c2C)cc(F)c1CN1CC(C(=O)O)C1 [Example 1.278],< 10 nM
3,COc1cc(-c2cccc(-c3cccc(NC(=O)c4cccn(C)c4=O)c3C)c2C)cc(F)c1CNCCCC(=O)O [Example 1.279],< 10 nM
4,COc1cc(-c2cccc(-c3cccc(NC(=O)c4cccn(C)c4=O)c3C)c2C)cc(F)c1CNCCS(=O)(=O)O [Example 1.280],< 10 nM
5,COc1cc(-c2cccc(-c3cccc(NC(=O)c4cccn(C)c4=O)c3C)c2C)cc(F)c1CNCC(C)(C)O [Example 1.281],< 10 nM
6,COc1cc(-c2cccc(-c3cccc(NC(=O)c4cccn(C)c4=O)c3C)c2C)cc(F)c1CNCCC(=O)O [Example 1.282],< 10 nM
7,COc1cc(-c2cccc(-c3cccc(NC(=O)c4c[nH]c(=O)n(C)c4=O)c3C)c2C)cc(F)c1CN1CC(C(=O)O)C1 [Example 1.283],< 10 nM
8,COc1cc(-c2cccc(-c3cccc(Nc4cccc5ccn(C)c(=O)c45)c3C)c2C)cc(F)c1CN1CC(C(=O)O)C1 [Example 1.284],10 to 1000 nM
9,COc1cc(-c2cccc(-c3cccc(NC(=O)c4ccc(C(=O)NCCO)cn4)c3C)c2C)cc(F)c1CN1CC(C(=O)O)C1 [Example 1.285],< 10 nM
10,COc1cc(-c2cccc(-c3cccc(Nc4cccc5ncn(C)c(=O)c45)c3C)c2C)cc(F)c1CN1CC(C(=O)O)C1 [Example 1.287],< 10 nM
11,COc1cc(-c2cccc(-c3cccc(NC(=O)c4cccn(CC(N)=O)c4=O)c3C)c2C)cc(F)c1CN [Example 1.288],10 to 1000 nM
12,COc1cc(-c2cccc(-c3cccc(NC(=O)c4cccn(C)c4=O)c3C)c2C)cc(F)c1CN[C@@](C)(CO)C(=O)O [Example 1.289],10 to 1000 nM
13,COc1cc(-c2cccc(-c3cccc(NC(=O)c4cccn(C)c4=O)c3C)c2C)cc(F)c1CNCC(=O)O [Example 1.290],< 10 nM
14,COc1cc(-c2cccc(-c3cccc(NC(=O)c4cccn(CC(=O)O)c4=O)c3C)c2C)cc(F)c1CN [Example 1.291],1000 to 10000 nM
15,COc1cc(-c2cccc(-c3cccc(NC(=O)c4ccc(OCC(N)=O)cn4)c3C)c2C)cc(F)c1CN [Example 1.296],< 10 nM
16,COc1cc(-c2cccc(-c3cccc(NC(=O)c4cccnc4O)c3C)c2C)cc(F)c1CN [Example 1.297],10 to 1000 nM
17,COc1cc(-c2cccc(-c3cccc(NC(=O)c4ncc(C(N)=O)cn4)c3C)c2C)cc(F)c1CN [Example 1.299],< 10 nM
18,COc1cc(-c2cccc(-c3cccc(NC(=O)c4cccn(C)c4=O)c3C)c2C)cc(F)c1CNCCO [Example 1.300],< 10 nM
19,COc1cc(-c2cccc(-c3cccc(NC(=O)c4cccn(C)c4=O)c3C)c2C)cc(F)c1CN1CC(C(=O)O)C1 [Example 1.301],< 10 nM
20,COc1cc(-c2cccc(-c3cccc(NC(=O)c4cc(C(=O)O)[nH]n4)c3C)c2C)cc(F)c1CN [Example 1.304],1000 to 10000 nM
